Data on 28 compounds can be found in ChEMBL document CHEMBL5360530, “Structure activity relationship (SAR) and anticancer activity of pyrrolidine derivatives: Recent developments and future prospects (A review)” (Eur J Med Chem, 2023).

In brackets after ≈: the same amount, converted by molar mass. Bounds are passed on as bounds.

What is called GI50 is the concentration at which growth is held to half of that of the control. For orientation: IC50 means the concentration needed to halve the response being measured.

The test system of assay [1] is MCF7. Description: Growth inhibition of human MCF7 cells assessed as cell growth inhibition by SRB assay. The format is functional. Background: In SRB staining, fixed cells bind dye roughly in proportion to their protein.
The next assay has as its system MDA-MB-435. The assay can be described thus: Anticancer activity against human MDA-MB-435 cells assessed as cell growth inhibition by SRB assay. The format is functional, cell-based.
In assay [2] the test system is MCF7. The assay can be described thus: Anticancer activity against human MCF7 cells assessed as cell growth inhibition by SRB assay. The class given is functional, cell-based.
A further assay has as its system FaDu. Description: Anticancer activity against human FaDu cells assessed as cell growth inhibition measured after 48 hrs. The class given is functional, cell-based.
For assay [3], the system named is MCF7. Description: Anticancer activity against human MCF7 cells assessed as cell growth inhibition measured after 48 hrs by MTT assay. The class given is functional, cell-based. Conditions: MCF7, 48 h.
A further assay concerns A549. The assay can be described thus: Anticancer activity against human A549 cells assessed as cell growth inhibition measured after 48 hrs by MTT assay. As to conditions: A549, 48 h. The class given is functional, cell-based. On the technique in general: Formazan colour is commonly taken as a measure of viable cells.

On to `O=C(/C=C/c1ccccc1)c1ccc(OCCN2CCCC2)cc1`, for which the GI50 in the assay on MCF7 [1] is less than 10 µg/mL.

Take `N#CC1=C(N)OC2=C(c3ccccc3C2=O)C12C(=O)Nc1ccc(I)cc12` (centres undefined): the IC50 in the assay with MDA-MB-435 was no less than 3.6 µM; in the assay with MCF7 [2], no less than 53 µM.

In the case of `Cc1ccc(/C=C2\CN(/C=C/c3ccccc3)C[C@]3(C2=O)[C@H](c2ccc(C)cc2)[C@@H](Cc2ccccc2)NC32C(=O)Nc3ccccc32)cc1` (some centres undefined), in the assay on FaDu (Homo sapiens, FaDu, 48 h), the IC50 is no less than 19 µM.

Take `COc1ccccc1/C=C1\CN(/C=C/c2ccccc2)C[C@]2(C1=O)[C@H](c1ccccc1OC)[C@@H](Cc1ccccc1)NC21C(=O)Nc2ccccc21` (some centres undefined): the concentration for half-maximal inhibition (IC50) in the assay on FaDu (Homo sapiens, FaDu, 48 h) is no less than 19 µM.

For `O=C(CN1CCCC1)Nc1cc2ccccc2oc1=O`, the IC50 is 4.8 µM with MCF7 [3] and 1.8 µM in the assay with A549.

On to `N#CC1=C(N)OC2=C(c3ccccc3C2=O)C12C(=O)Nc1ccc(Br)cc12` (centres undefined), for which the IC50 was no less than 3.6 µM in the assay with MDA-MB-435 and no less than 53 µM in the assay on MCF7 [2].

Take `N#C[C@H]1CCCN1CC(=O)Nc1cc2ccccc2oc1=O`: the concentration for half-maximal inhibition (IC50) in the assay on MCF7 [3] and with A549 was 4.37 µM in each case.

As to `Cc1cc(=O)oc2cc(NC(=O)[C@@H]3CCCN3S(=O)(=O)c3ccc(Cl)cc3)ccc12`, the values for the IC50 with MCF7 [3] and in the assay with A549 were 7.05 µM and 27.3 µM, respectively.

For `O=C(/C=C/c1ccco1)c1ccc(OCCN2CCCC2)cc1`, the GI50 with MCF7 [1] is greater than 80 µg/mL.

On to `O=C(/C=C/c1ccc(Cl)cc1Cl)c1ccc(OCCN2CCCC2)cc1`, for which, in the assay on MCF7 [1], the GI50 stood at 24.7 µg/mL (≈ 63.3 µM).

`CCOC(=O)[C@H]1CCCN1CC(=O)Nc1ccc2c(C)cc(=O)oc2c1`: the half-inhibitory concentration (IC50) turned out to be 0.355 µM in the assay with MCF7 [3] and 0.024 µM in the assay on A549.

For the compound `N#CC1=C(N)OC2=C(c3ccccc3C2=O)C12C(=O)Nc1ccccc12` (centres undefined), the half-inhibitory concentration (IC50) with MDA-MB-435 is no less than 3.6 µM; in the assay on MCF7 [2] it was no less than 53 µM.

Turning to `Cc1cc(=O)oc2cc(NC(=O)CN3CCC[C@@H]3C(N)=O)ccc12`, the IC50 stood at 0.355 µM in the assay on MCF7 [3] and 0.024 µM in the assay with A549.

Consider `NC(=O)[C@H]1CCCN1CC(=O)Nc1cc2ccccc2oc1=O`, for which the IC50 is 0.355 µM with MCF7 [3] and 0.024 µM with A549.

On to `O=C(/C=C/c1c(Cl)cccc1Cl)c1ccc(OCCN2CCCC2)cc1`, for which the concentration for 50% growth inhibition (GI50) with MCF7 [1] is greater than 80 µg/mL.

Turning to `Cc1cc(=O)oc2cc(NC(=O)[C@@H]3CCCN3S(=O)(=O)c3ccccc3)ccc12`, the half-inhibitory concentration (IC50) was 2.58 µM in the assay with MCF7 [3] and 18.1 µM with A549.

Regarding `Cc1cc(=O)oc2cc(NC(=O)CN3CCC[C@@H]3C#N)ccc12`, the 50% inhibitory concentration (IC50) is 4.43 µM with MCF7 [3] and 4.02 µM in the assay with A549.

Consider `Cc1cc(=O)oc2cc(NC(=O)CN3CCCC3)ccc12`, for which the IC50 in the assay with MCF7 [3] is 4.8 µM; with A549, 4.38 µM.

With `O=C1Nc2ccccc2C12N[C@H](Cc1ccccc1)[C@@H](c1cccc([N+](=O)[O-])c1)[C@@]21CN(/C=C/c2ccccc2)C/C(=C\c2cccc([N+](=O)[O-])c2)C1=O` (some centres undefined), the IC50 in the assay with FaDu (Homo sapiens, FaDu, 48 h) is no less than 19 µM.

Turning to `O=C(Nc1cc2ccccc2oc1=O)[C@@H]1CCCN1S(=O)(=O)c1ccccc1`, the figures for the IC50 in the assay with MCF7 [3] and with A549 were 9.34 µM and 7.39 µM, respectively.

Regarding `COc1cccc(/C=C2\CN(/C=C/c3ccccc3)C[C@]3(C2=O)[C@H](c2cccc(OC)c2)[C@@H](Cc2ccccc2)NC32C(=O)Nc3ccccc32)c1` (some centres undefined), the IC50 in the assay with FaDu (Homo sapiens, FaDu, 48 h) is no less than 19 µM.

On to `N#CC1=C(N)OC2=C(c3ccccc3C2=O)C12C(=O)Nc1ccc(Cl)cc12` (centres undefined), for which the IC50 was no less than 3.6 µM in the assay with MDA-MB-435 and no less than 53 µM with MCF7 [2].

Regarding `O=C(N[C@H]1C[C@@H](C(=O)NO)N(S(=O)(=O)c2ccc(Oc3ccccc3)cc2)C1)c1cccnc1`, the IC50 with A549 came out at 5 µM.

For `CCOC(=O)[C@H]1CCCN1CC(=O)Nc1cc2ccccc2oc1=O`, the IC50 in the assay with MCF7 [3] was determined as 9.27 µM; with A549 it was 3.09 µM.

For the compound `O=C(N[C@H]1C[C@@H](C(=O)NO)N(S(=O)(=O)c2ccc(Oc3ccccc3)cc2)C1)c1cc(Br)cnc1Cl`, the IC50 in the assay on A549 worked out at 5 µM.

With `O=C(Nc1cc2ccccc2oc1=O)[C@@H]1CCCN1S(=O)(=O)c1ccc(Cl)cc1`, the IC50 in the assay with MCF7 [3] came out at 4.39 µM; in the assay with A549, 3.81 µM.

For the compound `COc1ccc(/C=C2\CN(/C=C/c3ccccc3)C[C@]3(C2=O)[C@H](c2ccc(OC)cc2)[C@@H](Cc2ccccc2)NC32C(=O)Nc3ccccc32)cc1` (some centres undefined), in the assay on FaDu (Homo sapiens, FaDu, 48 h), the IC50 was no less than 19 µM.

Turning to BLEOMYCIN, the IC50 in the assay on FaDu (fadu) amounted to 31 µM.
